Source: patent US6486128B1, “Method of using emamectin to treat fish parasites” (Schering-Plough Veterinary Corporation, priority 1999, dated 2002)
Where “and” joins values, the source holds several entries; their conditions need not be identical. Equal entries are not always repeated.

Experiments:
[1] = tested on: sea lice, Lepeophtheirus salmonis; experiment: Dose confirmation study II: efficacy of emamectin benzoate in feed against induced sea lice infestations on Atlantic salmon; type: in vivo
Protocol: (§1) Three studies were carried out at the Institute of Aquaculture Marine Environmental Research Laboratory in Machrihanish, Scotland. Atlantic salmon, Salmo salar L., post-smolts were obtained from a disease free stock and acclimatised at the test facility.
(§2) Fish were held in replicate groups in plastic fiber tanks, each with a volume of 0.54 m^3. Each tank was supplied with natural sea water at ambient temperature (7-14° C.) and salinity (30-35 ppt), at flow rates of approximately 18 l. min^−1. The tanks were fitted with mesh screens over the water outlet to retain uneaten fish pellets. Fish were observed daily for behavior and adverse drug reactions. Fish mortalities and the occurrence of gross sea lice damage were also recorded.
(§3) Sea lice were collected during harvesting on commercial salmon farms on the west coast of Scotland. Egg strings collected from gravid female lice were incubated in sea water at ambient temperature and within a salinity range of 32-35 ppt. Once the hatched larvae reached the copepodite stage, 38-170 copepodites per fish were introduced into each of four replicate tanks of fish and the water supply to each tank was turned off for approximately three hours to allow attachment of copepodites to the fish. This was repeated 4-5 times at intervals of 3-5 days until chalimus stages I, II, III and IV were present. Chalimus numbers were evaluated at day −1 or day −2 pre-treatment, on sub-samples of fish (N=6-9 fish per tank). At this point, fish were infested with pre-adult and adult lice, by adding 5-10 lice per fish to each tank. Water supplies to each tank were turned off for around one hour until all the lice had attached to the fish. Pre-treatment lice numbers were based on a sub-sample of the total population and presented as the mean number of chalimus per fish. Fish were then randomly re-distributed from the four original tanks to each control or treatment tank, as described in the experimental design for each study, and no further infestations were carried out during or after treatment.
(§4) The basal ration was Fulmar™ (BOCM Pauls Ltd.) 3.5 or 5 mm salmon feed pellets. Emamectin benzoate was dissolved in propylene glycol and mixed with fish oil prior to top coating the feed pellets. Control feeds were prepared in the same way with propylene glycol and fish oil. Treatment was administered at nominal dose rates of 0, 25, 50 and 100 μg kg^−1 fish biomass per day, at a feed rate of 0.5% biomass, for a period of seven consecutive days (days 0-6). Actual daily feed consumption was measured in each tank by collecting the uneaten feed pellets approximately thirty minutes after administration and subtracting the number of pellets from the daily ration fed. The mean dose consumed was calculated for each group as follows: [formula] Mean feed consumption (%)×nominal dose rate (μg·kg^−1)=Mean dose consumed (μg·kg^−1)
(§5) Evaluation of sea lice numbers was carried out at 7, 14 and 21 days from the start of treatment. Fish were anaesthetised in 40 mg·l^−1 ethyl-P-aminobenzoate (benzocaine) and each fish examined under a low power microscope. Lice were identified as chalimus I-IV, pre-adult I or II and adult stages. Pre-adults and adult lice were additionally identified as males or females. The numbers of each developmental stage were recorded. Any lice which detached in the anaesthetic solution were included in the counts and reattached to the fish after transferring them to fresh seawater. The fish were returned to the holding tanks after sampling and the same fish were evaluated at days 7, 14 and 21.
The water temperature was 9-12° C. and salinity was 30-34 ppt. Pre-treatment, mean fish weights were 418.2 g (±49 g S.D). Emamectin benzoate was administered at se rates of 0 and 50 μg kg^−1 biomass. There were three replicate tanks per treatment with a sample size of 15-16 fish per tank. […]

[2] = tested on: sea lice, Lepeophtheirus salmonis; experiment: Dose confirmation study I: efficacy of emamectin benzoate in feed against induced sea lice infestations on Atlantic salmon; type: in vivo; settings: for Percentage fish mortality: mortality attributed to sea lice damage, includes culled fish
Protocol: as §1, §2, §3, §4, §5
The water temperature was 12-14° C. and salinity was 33-35 ppt. Pre-treatment, mean fish weights were 224 g (±43 g S.D). Emamectin benzoate was administered at nominal daily dose rates of 0, 25, and 50 μg kg^−1 biomass. There were three replicate tanks per treatment with 15 fish per tank. […]

[3] = tested on: L. salmonis; experiment: All three studies summarised: oral treatment of Atlantic salmon against L. salmonis; type: in vivo, Lepeophtheirus salmonis
Protocol: as §1, §2, §3, §4, §5
Results were summarised as chalimus (chalimus stages I-IV), motile lice pre-adult and adult stages) and total lice (chalimus and motile stages combined). Data on the number of lice per fish were subjected to F-tests for homogeneity of variances and a correlation test to examine the normality of distribution. Fish weights and pre-treatment lice counts were tested by one-way ANOVA. […]

[4] = nominal dose 50 μg·kg^−1/day (consumed 45.7) in feed Day 0-6, Day 7
[5] = nominal dose 50 μg·kg^−1/day (consumed 45.7) in feed Day 0-6, day 21
[6] = nominal dose 50 μg·kg^−1/day in feed Day 0-6, Day 14
[7] = nominal dose 50 μg·kg^−1/day in feed Day 0-6, Day 21
[8] = nominal dose 25 μg·kg^−1/day (consumed 20.2) in feed Day 0-6, Day 7
[9] = nominal dose 25 μg·kg^−1/day (consumed 20.2) in feed Day 0-6, day 21
[10] = nominal dose 25 μg·kg^−1/day in feed Day 0-6, Day 14
[11] = nominal dose 25 μg·kg^−1/day in feed Day 0-6, Day 21
[12] = nominal dose 50 μg·kg^−1/day (consumed 44.3) in feed Day 0-6, Day 7
[13] = nominal dose 50 μg·kg^−1/day (consumed 44.3) in feed Day 0-6, day 21
[14] = dose rate 50 μg kg^−1, three studies

## emamectin benzoate
[1]; [4]
  Mean chalimus (± S.D): 30.0 ± 11.8
  Mean motiles (± S.D): 10.5 ± 8.1
[1]; nominal dose 50 μg·kg^−1/day (consumed 45.7) in feed Day 0-6, Day 21
  % Reduction relative to controls (Total lice): 95% and 94.6%
[1]; [5]
  Percentage of fish with no lice present (chalimus or motiles): 27%
  Percentage of fish with no motile lice present: 66% and 66.3%
[1]; [6]
  % Reduction relative to controls (Total lice): 70.7%
  Mean Total lice (± S.D): 14.7 ± 5.9
  Mean chalimus (± S.D): 12.7 ± 5.7
  Mean motiles (± S.D): 2.0 ± 3.2
[1]; [7]
  Mean Total lice (± S.D): 2.1 and 2.1 ± 2.1
  Mean chalimus (± S.D): 1.5 ± 1.7
  Mean motiles (± S.D): 0.6 and 0.6 ± 1.1
[1]; nominal dose 50 μg·kg^−1/day, mortality figures include culled fish
  Percentage fish mortality: 0%
[2]; [8]
  % Reduction relative to controls (Total lice): 43.8%
  Mean Total lice (± S.D): 34.2 ± 15.8
  Mean chalimus (± S.D): 1.8 ± 1.7
  Mean motiles (± S.D): 32.4 ± 15.4
[2]; nominal dose 25 μg·kg^−1/day (consumed 20.2) in feed Day 0-6, Day 21
  % Reduction relative to controls (Total lice): 82% and 81.9%
[2]; [9]
  Percentage of fish with no lice present (chalimus or motiles): 3%
  Percentage of fish with no motile lice present: 6.1%
[2]; [10]
  % Reduction relative to controls (Total lice): 76.0%
  Mean Total lice (± S.D): 9.8 ± 4.4
  Mean chalimus (± S.D): 0.30
  Mean motiles (± S.D): 9.5 ± 4.4
[2]; [11]
  Mean Total lice (± S.D): 4.9 and 4.9 ± 3.1
  Mean chalimus (± S.D): 0
  Mean motiles (± S.D): 4.9 ± 3.1
[2]; nominal dose 25 μg·kg^−1/day
  Percentage fish mortality: 31%
[2]; [12]
  % Reduction relative to controls (Total lice): 53.8%
  Mean Total lice (± S.D): 28.1 ± 13.1
  Mean chalimus (± S.D): 3.2 ± 2.2
  Mean motiles (± S.D): 24.9 ± 13.2
[2]; nominal dose 50 μg·kg^−1/day (consumed 44.3) in feed Day 0-6, Day 21
  % Reduction relative to controls (Total lice): 94% and 94.3%
[2]; [13]
  Percentage of fish with no lice present (chalimus or motiles): 28.6%
  Percentage of fish with no motile lice present: 28.6%
[2]; [6]
  % Reduction relative to controls (Total lice): 88.0%
  Mean Total lice (± S.D): 4.9 ± 2.7
  Mean chalimus (± S.D): 0.6
  Mean motiles (± S.D): 4.3 ± 2.6
[2]; [7]
  Mean Total lice (± S.D): 1.6 and 1.6 ± 1.3
  Mean chalimus (± S.D): 0
  Mean motiles (± S.D): 1.6 ± 1.4
[2]; nominal dose 50 μg·kg^−1/day
  Percentage fish mortality: 27%
[2]; treated groups (25 and 50 μg kg^−1), day 7
  reduction of total mean numbers of lice compared to the control groups: 44-54%
[2]; treated groups (25 and 50 μg kg^−1), day 21
  total lice numbers lower than in the control groups: 82-94%
[3]; 50 μg kg^−1, day 7 from the start of medication, three studies
  reduction of motile lice numbers: 58-80%
[3]; [14]
  Percentage of fish with no motile lice present: ≤ 87%
  percentage of fish with no lice present of any stage: 20-30%
  reductions in sea lice numbers consistently achieved: 94-95%
[3]; oral treatment of Atlantic salmon
  efficacy against the immature chalimus stages: highly effective
[3]; oral treatment of Atlantic salmon, all three studies
  efficacy against the motile and chalimus stages of L. salmonis: very good efficacy
